The numbers were not newly measured in US8067434B2, “Compounds and methods for development of Ret modulators” (Plexxikon Inc., priority 2003, dated 2011), which cites them from elsewhere.

The test system of one data set is Ret. The note with it: DAergic neuron cultures.
Data set [1] has as its system TT cells, with RetC634 mutant. The note with it: TT cells in RPMI medium, varying concentrations.
The next data set relates to Ret transformed NIH3T3. As to conditions: Ret transformed NIH3T3, treatment with inhibitor.
The subject of the next data set is Ret kinase. The note with it: incubation with the inhibitor.

Consider `C[C@]12O[C@H](C[C@]1(O)C(=O)O)n1c3ccccc3c3c4c(c5c6ccccc6n2c5c31)CNC4=O` [Compound K-252b, K-252b], for which, in the data set with Ret, the “normal functioning of Ret in GDNF-induced differentiation” value is given as “inhibited”.

As to `Cc1ccc(NC(=O)c2ccc(CN3CCN(C)CC3)cc2)cc1Nc1nccc(-c2cccnc2)n1` [STI571], the cell growth result in data set [1] is on record as “inhibiting cell growth”. As for `C=CCNC1=C2C[C@@H](C)C[C@H](OC)[C@H](O)[C@@H](C)/C=C(\C)[C@H](OC(N)=O)[C@@H](OC)/C=C\C=C(/C)C(=O)NC(=CC1=O)C2=O` [allyl-geldanamycin], the cell growth result in data set [1] is given as “inhibiting cell growth”. With `O=c1c(-c2ccc(O)cc2)coc2cc(O)cc(O)c12` [genistein], in data set [1], the cell growth entry was “inhibiting cell growth”. Take `CO[C@H]1[C@@H](OC)C[C@H](C)[C@@H](OC)C2=CC(=O)C=C(NC(=O)/C(C)=C/C=C\[C@H](OC)[C@@H](OC(N)=O)/C(C)=C/[C@@H]1C)C2=O` [herbimycin A]: in the data set on Ret transformed NIH3T3, the cellular phenotype result was “reverted the cellular phenotype to a more untransformed flat morphology”. For the same compound, the “intracellular Ret kinase activity” value with Ret kinase is on record as “decreased”.
